Measured values from US20050148633A1 (priority 2003, published 2005).
One block for each molecule: values may come before it.

What was measured:
IL-2 production = assay: Inhibition of IL-2 production in PHA-activated Jurkat cells (ELISA); format: cell-based; conditions: Homo sapiens
Protocol: Jurkat cells were placed in a 96 well plate (0.5 million cells per well in 1% FBS medium) then test compounds of this invention were added at different concentrations. After 10 minutes, the cells were activated with PHA (final concentration 2.5 μg/mL) and incubated for 20 hours at 37° C. under CO2. The final volume was 200 μL. Following incubation, the cells were centrifuged and the supernatants collected and stored at −70° C. prior to assaying for IL-2 production. A commercial ELISA kit (IL-2 Eli-pair, Diaclone Research, Besancon, France) was used to detect production of IL-2, from which dose response curves were obtained. The IC50 value was calculated as the concentration at which 50% of maximum IL-2 production after stimulation was inhibited versus a non-stimulation control.

TRPM4 = molecular target: T1, TRPM4 (Homo sapiens, UniProt Q8TD43); assay: Activation of TRPM4 channel, whole-cell patch clamp in Jurkat cells and HEK-293 cells overexpressing TRPM4; format: cell-based; conditions: free intracellular calcium 300 nM
T1 construct: FLAG (N); expressed in transfected cells; host or cells: HEK 293 (tetracycline-induced FLAG-humanTRPM4/pCDNA4/TO); also Jurkat cells (endogenous TRPM4)
T1 sequence (Q8TD43 whole entry): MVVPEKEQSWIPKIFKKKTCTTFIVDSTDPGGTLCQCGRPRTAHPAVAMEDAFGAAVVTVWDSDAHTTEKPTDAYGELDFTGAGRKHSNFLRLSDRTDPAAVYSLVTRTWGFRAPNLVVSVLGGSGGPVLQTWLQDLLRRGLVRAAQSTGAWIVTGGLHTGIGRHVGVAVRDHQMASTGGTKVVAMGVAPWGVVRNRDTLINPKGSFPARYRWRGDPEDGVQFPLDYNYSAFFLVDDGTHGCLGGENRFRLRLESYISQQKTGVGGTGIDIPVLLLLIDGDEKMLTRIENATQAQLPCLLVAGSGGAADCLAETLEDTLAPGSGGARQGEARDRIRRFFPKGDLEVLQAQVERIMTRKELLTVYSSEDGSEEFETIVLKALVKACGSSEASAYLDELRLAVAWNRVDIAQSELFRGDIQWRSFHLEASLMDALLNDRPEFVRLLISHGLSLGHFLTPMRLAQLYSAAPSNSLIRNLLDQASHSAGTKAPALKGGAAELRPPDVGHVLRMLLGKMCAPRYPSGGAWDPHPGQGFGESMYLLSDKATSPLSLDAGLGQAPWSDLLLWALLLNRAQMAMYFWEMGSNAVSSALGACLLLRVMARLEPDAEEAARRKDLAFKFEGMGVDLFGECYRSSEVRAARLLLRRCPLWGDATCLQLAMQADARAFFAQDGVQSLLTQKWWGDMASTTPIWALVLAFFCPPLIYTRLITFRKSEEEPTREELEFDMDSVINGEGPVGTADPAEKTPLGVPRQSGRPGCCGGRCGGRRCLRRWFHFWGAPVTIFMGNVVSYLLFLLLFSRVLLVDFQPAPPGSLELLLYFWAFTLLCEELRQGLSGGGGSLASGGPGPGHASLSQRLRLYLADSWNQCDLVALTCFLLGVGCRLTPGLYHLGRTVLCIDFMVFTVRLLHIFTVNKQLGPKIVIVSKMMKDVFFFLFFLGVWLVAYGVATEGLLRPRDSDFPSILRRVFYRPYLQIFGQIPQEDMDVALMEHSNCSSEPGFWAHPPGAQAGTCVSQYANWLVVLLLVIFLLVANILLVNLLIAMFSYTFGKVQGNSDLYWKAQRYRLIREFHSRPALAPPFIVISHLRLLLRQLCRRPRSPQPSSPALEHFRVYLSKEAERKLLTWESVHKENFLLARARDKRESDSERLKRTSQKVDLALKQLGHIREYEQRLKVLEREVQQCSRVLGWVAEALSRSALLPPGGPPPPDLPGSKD
Protocol: Human leukemic T cells (Jurkat cells) and HEK 293 cells transfected with the FLAG-humanTRPM4/pCDNA4/TO construct were grown on glass coverslips with DMEM medium supplemented with 10% FBS, blasticidin (5 μg/mL) and zeocin ([…]). TRPM4 expression was induced one day before use by adding 1 μg/mL tetracycline to the culture medium and patch clamp experiments were performed 16-24 hours post-induction (for additional details see Launay et al. (2000)).
Patch clamp experiments were performed in the tight-seal whole-cell configuration at 21-25° C. High resolution current recordings were acquired by a computer-based patch clamp amplifier system (EPC-9, HEKA, Lambrecht, Germany). Patch pipettes had resistances between […] after filling with the standard intracellular solution. […] Capacitive currents and series resistance were determined and corrected before each voltage ramp using the automatic capacitance compensation of the EPC-9. The low resolution temporal development of membrane currents was assessed by extracting the current amplitude at −80 mV or +80 mV from individual ramp current records.
TRPM4 currents were measured in Jurkat cells and HEK-293 cells overexpressing TRPM4. […]

RBL cells = assay: Inhibition of degranulation in RBL cells; format: cell-based; conditions: Rattus norvegicus, anti-DNP IgE / anti-IgE, read-out: concentration at which 50% of degranulation is inhibited
Protocol: Procedure: • The day before the assay was performed, RBL cells, that had been grown to confluence in a 96 well plate, were incubated at 37° C. for at least 2 hours. The medium was replaced in each well with 100 μL of fresh medium containing of anti-DNP IgE.
On the following day, the cells were washed once with PRS (2.6 mM glucose and 0.1% BSA) and 160 μL of PRS was added to each well. The test compound was addded to a well in a 20 μL solution at 10× of the desired concentration and incubated for 20 to 40 minutes at 37° C. 20 μL of 10× mouse anti-IgE (10 μL/mL). Maximum degranulation occurred between 15 to 40 minutes after addition of anti-IgE.

IL-2 = assay: Cytokine inhibition in PHA-stimulated primary human PBMCs: IL-2; format: cell-based; conditions: PBMC
Protocol: (§1) Cytokine production was measured using commercially available human ELISA assay kits (from Cell Science, Inc.) following the manufacturers instructions.

IL-4 = assay: Cytokine inhibition in PHA-stimulated primary human PBMCs: IL-4; format: cell-based; conditions: PBMC
Protocol: as §1

IL-5 = assay: Cytokine inhibition in PHA-stimulated primary human PBMCs: IL-5; format: cell-based; conditions: PBMC
Protocol: as §1

IL-10 = assay: Cytokine inhibition in PHA-stimulated primary human PBMCs: IL-10; format: cell-based; conditions: PBMC
Protocol: as §1

IL-13 = assay: Cytokine inhibition in PHA-stimulated primary human PBMCs: IL-13; format: cell-based; conditions: PBMC
Protocol: as §1

GM-CSF = assay: Cytokine inhibition in PHA-stimulated primary human PBMCs: GM-CSF; format: cell-based; conditions: PBMC
Protocol: as §1

INF-γ = assay: Cytokine inhibition in PHA-stimulated primary human PBMCs: INF-γ; format: cell-based; conditions: PBMC
Protocol: as §1

TNF-α = assay: Cytokine inhibition in PHA-stimulated primary human PBMCs: TNF-α; format: cell-based; conditions: PBMC
Protocol: as §1

[1] = test system: CRAC ion channel (ICRAC current); assay: Patch clamp inhibition of ICRAC current in Jurkat cells; format: cell-based, human; conditions: 1 μM compound, n=3
Protocol: In general, a whole cell patch clamp method was used to examine the effects of a compound of the invention on a channel that mediates Icrac. In such experiments, a baseline measurement was established for a patched cell. Then a compound to be tested was perfused (or puffed) to cells in the external solution and the effect of the compound on Icrac was measured. A compound that modulates Icrac (e.g., inhibits) is a compound that is useful in the invention for modulating CRAC ion channel activity.
Jurkat T cells were grown on glass coverslips, transferred to the recording chamber and kept in a standard modified Ringers solution of the following composition: NaCl 145 mM, KCl 2.8 mM, CsCl 10 mM, CaCl2 10 mM, MgCl2 2 mM, glucose 10 mM, HEPES.NaOH 10 mM, pH 7.2.
The external solution contained 10 mM CaNaR, 11.5 mM glucose and the test compound at the concentrations described below.
The standard intracellular pipette solution contained: Cs-glutamate 145 mM, NaCl 8 mM, MgCl2 1 mM, ATP 0.5 mM, GTP 0.3 mM, pH 7.2 adjusted with CsOH. […]
Patch-clamp experiments were performed in the tight-seal whole-cell configuration at 21-25° C. […] Capacitive currents and series resistance were determined and corrected before each voltage ramp using the automatic capacitance compensation of the EPC-9. […]

[2] = PHA 2.5 μg/mL, 20 hours, value bins

Structure (SMILES): O=C(Nc1ccc(-c2cc(C(F)(F)F)ccc2Cl)cc1)c1cccc(F)c1F [Compound 23]
IC50 (IL-2 production; [2]): < 100 nM
EC50 (TRPM4): 20 to 50 nM

Structure (SMILES): COc1ccc(CCCOC(Cn2ccnc2)c2ccc(OC)cc2)cc1 (stereo not drawn) [SKF96365, reference compound]
IC50 (RBL cells): > 20000 nM

Structure (SMILES): Cc1nnsc1C(=O)Nc1ccc(-c2cc(C(F)(F)F)ccc2C(F)(F)F)cc1 [Compound 24, 4-Methyl-[1,2,3]thiadiazole-5-carboxylic acid (2′,5′-bis-trifluoromethyl-biphenyl-4-yl)-amide]
IC50 (IL-2 production; [2]): < 100 nM
EC50 (TRPM4): 20 to 50 nM

Structure (SMILES): COc1ccc(OC)c(-c2ccc(NC(=O)c3ccncc3F)cc2)c1 [Compound 66, 3-fluoro-pyridine-4-carboxylic acid (2′,5′-dimethoxybiphenyl-4-yl)-amide]
IC50 (IL-2 production; [2]): < 100 nM
inhibition of Icrac in Jurkat cells [1]: > 90%
IC50 (IL-2): 20 nM
IC50 (IL-4): 445 nM
IC50 (IL-5): 21 nM
IC50 (IL-10): > 1000 nM
IC50 (IL-13): 75 nM
IC50 (GM-CSF): 448 nM
IC50 (INF-γ): 88 nM
IC50 (TNF-α): 271 nM
IC50 (RBL cells): 430 nM

Structure (SMILES): O=C(Nc1ccc(-c2cc(C(F)(F)F)ccc2C(F)(F)F)cc1)c1csnn1 [Compound 41, [1,2,3]-Thiadiazole-4-carboxylic acid (2′,5′-bis-trifluoromethyl-biphenyl-4-yl)-amide]
IC50 (IL-2 production; [2]): 100 to 500 nM

Structure (SMILES): O=C(Nc1ccc(-c2ccccc2C(F)(F)F)cc1)c1ccncc1F [Compound 1, 3-Fluoro-N-(2′-trifluoromethyl-biphenyl-4-yl)-isonicotinamide]
IC50 (IL-2 production; [2]): 100 to 500 nM

Structure (SMILES): Cc1nc(C(=O)Nc2ccc(-c3ccccc3C(F)(F)F)cc2)c(C(F)(F)F)o1 [Compound 13, 2-Methyl-5-trifluoromethyl-oxazole-4-carboxylic acid (2′-trifluoromethyl-biphenyl-4-yl)-amide]
IC50 (IL-2 production; PHA, bin >1 μM): > 1000 nM

Structure (SMILES): N#Cc1cc(C(F)(F)F)cnc1-c1ccc(NC(=O)c2cccc(F)c2F)cc1 [Compound 37, N-[4-(3-cyano-5-trifluoromethyl-pyrid-2-yl)-phenyl]-2,3-difluoro-benzamide]
IC50 (IL-2 production; [2]): 100 to 500 nM

Structure (SMILES): O=C(Nc1ccc(-c2cc(C(F)(F)F)ccc2C(F)(F)F)cc1)c1ccncc1F [Compound 68, 3-fluoro-pyridine-4-carboxylic acid (2′,5′-bis-trifluoromethylbiphenyl-4-yl)-amide]
IC50 (IL-2 production; [2]): < 100 nM

Structure (SMILES): Cc1cnccc1C(=O)Nc1ccc(-c2cc(C(F)(F)F)ccc2C(F)(F)F)cc1 [Compound 64, 3-methyl-pyridine-4-carboxylic acid (2′,5′-bis-trifluoromethyl-biphenyl-4-yl)-amide]
IC50 (IL-2 production; [2]): < 100 nM

Structure (SMILES): Cc1c(Cl)cccc1C(=O)Nc1ccc(-c2cc(C(F)(F)F)ccc2C(F)(F)F)cc1 [Compound 54, N-(2′,5′-bis-trifluoromethyl-biphenyl-4-yl)-2-methyl-3-chlorobenzamide]
IC50 (IL-2 production; [2]): < 100 nM

Structure (SMILES): Cc1cccc(C(=O)Nc2ccc(-c3cc(C(F)(F)F)ccc3C(F)(F)F)cc2)c1C [Compound 53, N-(2′,5′-bis-trifluoromethyl-biphenyl-4-yl)-2,3-dimethylbenzamide]
IC50 (IL-2 production; [2]): < 100 nM

Structure (SMILES): Cc1ccccc1-c1ccc(NC(=O)c2ccncc2F)cc1 [Compound 2, 3-Fluoro-N-(2′-methyl-biphenyl-4-yl)-isonicotinamide]
IC50 (IL-2 production; [2]): 100 to 500 nM

Now from value to molecule:

IC50 (IL-2 production; [2]): < 100 nM
IC50 (IL-2): 4 nM
IC50 (IL-4): 103 nM
IC50 (IL-5): 7 nM
IC50 (IL-10): > 1000 nM
IC50 (IL-13): 15 nM
IC50 (GM-CSF): 152 nM
IC50 (INF-γ): 23 nM
IC50 (TNF-α): 81 nM
Structure (SMILES): CSc1ccccc1-c1ccc(NC(=O)c2ccncc2C)cc1 [Compound 75, 3-methyl-pyridine-4-carboxylic acid (2′-methylsulfanyl-biphenyl-4-yl)-amide]

IC50 (IL-2 production; [2]): < 100 nM
Structure (SMILES): O=C(Nc1ccc(-c2cc(Cl)ccc2Cl)cc1)c1c(F)cccc1F [Compound 88, N-(2′,5′-dichlorobiphenyl-4-yl)-2,6-difluorobenzamide]

IC50 (IL-2 production; [2]): 100 to 500 nM
Structure (SMILES): Cc1cnccc1C(=O)Nc1ccc(-c2ccccc2C(C)C)cc1 [Compound 77, 3-methyl-pyridine-4-carboxylic acid (2′-isopropyl-biphenyl-4-yl)-amide]

IC50 (IL-2 production; [2]): < 100 nM
Structure (SMILES): COc1ccc(C)cc1-c1ccc(NC(=O)c2ccncc2C)cc1 [Compound 69, 3-methyl-pyridine-4-carboxylic acid (2′-methoxy-5′-methylbiphenyl-4-yl)-amide]

IC50 (IL-2 production; [2]): 100 to 500 nM
Structure (SMILES): COc1ccc(N(C)C)c(-c2ccc(NC(=O)c3ccncc3C)cc2)c1 [Compound 80, 3-methyl-pyridine-4-carboxylic acid {2′-(N,N-dimethylamino)-5′-methoxybiphenyl-4-yl}-amide]

IC50 (IL-2 production; [2]): 100 to 500 nM
Structure (SMILES): O=C(Nc1ccc(-c2c(C(F)(F)F)cc3ccccn23)cc1)c1cc(F)ccc1F [Compound 90, 2,5-Difluoro-N-[4-(2-trifluoromethyl-indolizin-3-yl)-phenyl]-benzamide]
